Source: publication PMC6271241, “Several Human Cyclin-Dependent Kinase Inhibitors, Structurally Related to Roscovitine, As New Anti-Malarial Agents” (Molecules, 2014)
Read-outs that look alike come from different tables or passages of the source.

Legend:
CDK5/p25 = target: T1, CDK5/p25 (Homo sapiens, UniProt Q00535); assay: CDK5/p25 kinase assay ([γ-33P] ATP, histone H1); format: biochemical
T1 construct: made in house
Description: (§1) CDK1/cyclin B (M phase starfish oocytes, native), CDK2/cyclin A (human, recombinant) and CDK5/p25 (human, recombinant) were prepared as previously described. […] ATP (3000 Ci/mmol; 10 mCi/mL) in a final volume of 30 µL. After 30 min incubation at 30 °C, 25 µL aliquots of supernatant were spotted onto 2.5 cm × 3 cm pieces of Whatman P81 phosphocellulose paper, and, 20 s later, the filters were washed five times (for at least 5 min each time) in a solution of 10 mL of phosphoric acid/liter of water. The wet filters were counted in the presence of 1 mL of ACS (Amersham, Pittsburgh, PA, USA) scintillation fluid.

Pf3D7 = assay: [3H]hypoxanthine incorporation growth assay, Pf3D7; format: cell-based, Plasmodium falciparum; conditions: for IC50: Plasmodium falciparum
Description: (§2) A selection of 15 molecules 4b–c, 10–13 representing the different 2,6,9-trisubstituted purine series, including newly synthesized products was screened as anti-malarial agents on two different P. falciparum strains, Pf3D7, a standard drug-sensitive African stain, and Pf7G8, a brazilian chloroquino-resistant strain (Figure 3). The compound activity was evaluated during the parasitic erythocytic cycle, by the means of a [^3H] hypoxanthine incorporation assay. It is directly correlated to parasite viability, as described in the experimental section.
(§3) At first, the activity of the fifteen compounds was screened at three different concentrations (10, 50 and 100 µM) on Pf3D7. Chloroquine which is not a kinase inhibitor, but which is the antimalarial reference drug was used as the positive control. […] Chloroquine was again used as a positive control.
(§4) Compounds were tested against synchronous ring-stage parasites of Pf3D7 and Pf7G8 strains. Drugs testing were carried out in 96-well microtiter plates. The chloroquine (CQ) diphosphate was purchased from Sigma (Lyon, France). […] For each assay, each drug dilution was analyzed in triplicate.
(§5) For the in vitro isotopic microtest, 200 µL of the suspension of synchronous parasitized red blood cells with >90% of the parasites at the ring stage (final parasitaemia, 0.3%; final haematocrit, 4%) per well were plated in 96-well plates that contained serial CQ or compounds concentrations. […] The plates were incubated at 37 °C, in an atmosphere of 5% O2, 5% CO2, and 90% N2 for 48 h. Immediately after incubation, plates were frozen and then thawed to lyse the erythrocytes. Cultures were harvested onto glass fiber filters and washed using a cell harvester (FilterMAT; Skatron Instruments, Dalsletta, Norway). The dried fiber filter papers were mixed with 2 mL of scintillation fluid (OptiScint; Perkin-Elmer, Waltham, UK). […] The initial value and the asymptotic result for high concentrations were fixed to 0% and 100%, respectively, available on the web.

Pf7G8 = assay: [3H]hypoxanthine incorporation growth assay, Pf7G8; format: cell-based, Plasmodium falciparum; conditions: for IC50: Plasmodium falciparum
Description: as §2, §3, §4, §5

CDK1/cyclin B [1] = tested on: CDK1/cyclin B; design: method as in PMID 18698753; conditions: previously reported; cited from earlier work
CDK1/cyclin B [2] = assay: CDK1/cyclin B kinase assay ([γ-33P] ATP, histone H1); format: biochemical, starfish; conditions: Table A1; read-out: IC50 on HsCDKs HsCDK1
CK1δ/ε [3] = tested on: CK1δ/ε; design: method as in PMID 18698753; conditions: read-out: IC50 CK1, cited from earlier work
CDK2/cyclin A = target: T2, CDK2/cyclin A (Homo sapiens, UniProt P24941); assay: CDK2/cyclin A kinase assay ([γ-33P] ATP, histone H1); format: biochemical; conditions: 15 µM ATP, Table 1
T2 construct: made in house
Description: as §1

CDK1/cyclin B [4] = assay: CDK1/cyclin B kinase assay ([γ-33P] ATP, histone H1); format: biochemical, starfish; conditions: 15 µM ATP, Table 1
Description: as §1

DYRK1A = DYRK1A (Homo sapiens, UniProt Q13627); assay: DYRK1A kinase assay (Woodtide); format: biochemical; conditions: 15 µM ATP; Table 1
CK1δ/ε [5] = assay: CK1δ/ε kinase assay (CKS peptide); conditions: read-out: IC50 CK1δ/ε; 15 µM ATP; Table 1
Description: (§6) The effects on CDK1/cyclin B, CDK2/cyclin A, CDK5/p25, GSK-3αβ, CK1δ/ε and DYRK1A kinase activity are reported as the IC50 values calculated from dose-response curves. The inhibition was determined covering a range of concentrations of the compounds by means of a [γ-^33P] assay as described in the experimental section.
(§7) Controls were performed with appropriate dilutions of DMSO.

GSK-3α/β = GSK-3α/β kinase assay (GS-1 peptide); conditions: read-out: IC50 GSK-3αβ; 15 µM ATP; Table 1; >10 = no activity at 10 µM
Description: as §6, §7
GSK-3α/β (porcine brain, native) was assayed, as described for CDK1 but in Buffer A and using a GSK-3 specific substrate (GS-1: [sequence]pEDEEE) (pS stands for phosphorylated serine).

N2A-APP659 cell model = tested on: N2A-APP659 cell model; design: method as in PMID 18698753; conditions: dose-dependent; cited from earlier work
CK1 = tested on: CK1; design: method as in PMID 10662688; conditions: cited from earlier work
[6] = Table A1, read-out: IC50 on HsCDKs HsCDK5
[7] = CDK5/p25, 15 µM ATP, Table 1, read-out: IC50 CDK5
[8] = Table A1, N.I. = not inhibitor, read-out: IC50 on P. falciparum Strains Pf3D7
[9] = Table A1, N.I. = not inhibitor, read-out: IC50 on P. falciparum Strains Pf7G8
[10] = chloroquino-resistant strain, 48 h, Table 2, read-out: Growth IC50 Pf7G8

T1 sequence (Q00535 whole entry): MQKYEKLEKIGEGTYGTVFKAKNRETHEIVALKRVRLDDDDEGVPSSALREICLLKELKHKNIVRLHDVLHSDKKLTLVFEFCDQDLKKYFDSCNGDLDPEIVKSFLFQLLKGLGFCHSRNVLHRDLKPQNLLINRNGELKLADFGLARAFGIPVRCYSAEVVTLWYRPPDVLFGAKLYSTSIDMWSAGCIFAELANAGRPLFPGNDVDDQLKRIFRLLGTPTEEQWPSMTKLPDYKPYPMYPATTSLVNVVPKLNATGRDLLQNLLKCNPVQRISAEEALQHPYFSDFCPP
T1 sequence (Q15078 99-307 partner limits assumed): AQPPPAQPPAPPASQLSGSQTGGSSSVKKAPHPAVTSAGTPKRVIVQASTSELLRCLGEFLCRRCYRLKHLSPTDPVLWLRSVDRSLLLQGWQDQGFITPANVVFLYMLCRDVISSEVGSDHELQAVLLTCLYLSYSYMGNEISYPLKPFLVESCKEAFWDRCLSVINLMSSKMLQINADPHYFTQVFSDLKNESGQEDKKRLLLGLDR

Row | SMILES | IC50 (CDK5/p25; [6]) | IC50 on P. falciparum Strains Pf3D7 (Pf3D7; Table A1, N.I. = not inhibitor) | IC50 on P. falciparum Strains Pf7G8 (Pf7G8; Table A1, N.I. = not inhibitor) | IC50 (CDK1/cyclin B [2]) | IC50 (CDK5/p25; [7]) | IC50 (CDK1/cyclin B [4]) | IC50 (CK1δ/ε [5]) | IC50 (GSK-3α/β) | also measured
1 | CC(C)n1cnc2c(Nc3ccc(Br)cc3)nc(-c3cccnc3)nc21 [Compound 18] | 730 nM | N.I. | N.I. | 410 nM |  |  |  |  | IC50 (CDK1/cyclin B [1]): 410 nM; IC50 (CK1δ/ε [3]; previously reported): 100 nM
2 | CC(C)n1cnc2c(Nc3cncnc3)nc(Nc3cncnc3)nc21 [Compound 5] |  |  |  |  | 400 nM |  |  |  | IC50 (CDK2/cyclin A): 200 nM
3 | CC(C)n1cnc2c(Nc3ccncc3)nc(Nc3ncccn3)nc21 [Compound 4d] |  |  |  |  | 7000 nM | 9300 nM | 2800 nM | > 10000 nM | IC50 (DYRK1A): 5200 nM
4 | CC[C@H](CO)Nc1nc(Nc2cccc(-c3cccnc3)c2)c2ncn(C(C)C)c2n1 [Compound 15] | 50 nM | N.I. | N.I. | 180 nM |  |  |  |  | 
5 | CC[C@@H](CO)Nc1nc(Nc2cccc(-c3cccnc3)c2)c2ncn(C(C)C)c2n1 [Compound 12, (S)-2-(1-Hydroxybut-2-ylamino)-6-[3-(3-pyridyl)phenylamino]-9-iso-propylipurine] |  |  |  | 200 nM | 100 nM | 200 nM | 200 nM | > 10000 nM | IC50 (Pf3D7; [8]): 5370 nM; IC50 (Pf7G8; [9]): 1550 nM; IC50 (Pf7G8; [10]): 1550 nM
6 | CCN(CC)CCCC(C)Nc1ccnc2cc(Cl)ccc12 (stereo not shown) [Chloroquine, chloroquine, reference compound] |  |  |  |  |  |  |  |  | IC50 (Pf3D7; 48 h, read-out: Growth IC50 Pf3D7): 30 nM; IC50 (Pf7G8; 48 h, read-out: Growth IC50 Pf7G8): 180 nM
7 | CC[C@@H](CO)Nc1nc(Nc2ccc(-c3ccccn3)cc2)c2ncn(C(C)C)c2n1 [Compound 13, (S)-2-(1-Hydroxybut-2-ylamino)-6-[4-(2-pyridyl)phenylamino]-9-iso-propylpurine] |  | N.I. | N.I. | 200 nM |  | 200 nM | 500 nM | > 10000 nM | IC50 (CDK2/cyclin A): 200 nM
8 | CC[C@H](CO)Nc1nc(Nc2cccc(-c3ccccn3)c2)c2ncn(C(C)C)c2n1 [Compound 3] |  |  |  |  | 80 nM | 220 nM | 10 nM | > 10000 nM | IC50 (CK1δ/ε [3]): 14 nM; amyloïd-β production (N2A-APP659 cell model): antagonizes amyloïd-β production
9 | CC[C@H](CO)Nc1nc(Nc2ccc(-c3cccnc3)nc2)c2ncn(C(C)C)c2n1 [Compound 10, (R)-2-(1-Hydroxybut-2-ylamino)-6-[6-(3-pyridyl)pyrid-3-ylamino]-9-iso-propylpurine] |  | N.I. | N.I. | 10 nM | 30 nM | 10 nM | 200 nM | > 10000 nM | 
10 | CC(C)n1cnc2c(Nc3ccccn3)nc(Nc3ncccn3)nc21 [Compound 4b] | > 10000 nM | N.I. | N.I. |  | > 10000 nM |  | > 10000 nM | > 10000 nM | IC50 (DYRK1A): 8000 nM
11 | CC[C@H](CO)Nc1nc(Nc2ccc(-c3cncnc3)cc2)c2ncn(C(C)C)c2n1 [Compound 21] | 60 nM |  |  | 40 nM |  |  |  |  | IC50 (Pf3D7; 48 h, drug-sensitive strain, 48 h, Table 2, read-out: Growth IC50 Pf3D7): 3050 nM; IC50 (Pf3D7; [8]): 3050 nM; IC50 (Pf7G8; [9]): 690 nM; IC50 (Pf7G8; [10]): 690 nM
12 | NC1=NC(=O)/C(=C2\CCNC(=O)c3[nH]c(Br)cc32)N1 [hymenialdisine] |  |  |  |  |  |  |  |  | IC50 (CK1): 30 nM
